Test results taken from patent US6534523B1, “Hepatitis C inhibitor tri-peptides” (Boehringer Ingelheim (Canada) Ltd., priority 1998, dated 2003).
Where two headings read alike, the source gives them in different places.

Tests used:
Assay type in all cases: biochemical, HCV genotype 1b
[1] = molecular target: HCV NS3 protease (UniProt P26663); parameters: rows headed: IC50 (μM); IC50 (μM)
[2] = molecular target: HCV NS3 protease (UniProt P26663); parameters: rows headed: difference in potency between (1R,2S) compound and its (1S,2S) isomer; other: 801 vs. corresponding (1S,2S) isomer; conditions: 801 vs. corresponding (1S,2S) isomer
Method: (§1) Recombinant HCV NS3 Protease/NS4A Cofactor Peptide Radiometric Assay
(§2) The enzyme was cloned, expressed and prepared according to the protocol described in Example 36. The enzyme was stored at −80° C., thawed on ice and diluted just prior to use in the assay buffer containing the NS4A cofactor peptide.
(§3) The substrate used for the NS3 protease/NS4A cofactor peptide radiometric assay, DDIVPC-SMSYTW, is cleaved between the cysteine and the serine residues by the enzyme. The sequence DDIVPC-SMSYTW corresponds to the NS5A/NS5B natural cleavage site in which the cysteine residue in P2 has been substituted for a proline. […] (molar ratio enzyme:cofactor 1:100) in the absence or presence of inhibitors. The separation of substrate from products is performed by adding avidin-coated agarose beads to the assay mixture followed by filtration. […]
(§4) The NS2-NS5B-3′ non coding region was cloned by RT-PCR into the pCR®3 vector (Invitrogen) using RNA extracted from the serum of an HCV genotype 1b infected individual (provided by Dr. Bernard Willems, Hôpital St-Luc, Montréal, Québec, Canada). […] Fluorescence of the N-terminal product was monitored on a Perkin-Elmer LS-50B fluorometer equipped with a 96-well plate reader (excitation wavelength: 325 nm; emission wavelength: 423 nm). […]

[3] = molecular target: HCV NS3 protease (UniProt P26663); conditions: read-out: activity / potency (HCV NS3 protease inhibition); text comparison of P1 configuration
Method: as §1, §2, §3, §4

Chain of HCV NS3 protease (P26663 1027-1206, other chains not shown): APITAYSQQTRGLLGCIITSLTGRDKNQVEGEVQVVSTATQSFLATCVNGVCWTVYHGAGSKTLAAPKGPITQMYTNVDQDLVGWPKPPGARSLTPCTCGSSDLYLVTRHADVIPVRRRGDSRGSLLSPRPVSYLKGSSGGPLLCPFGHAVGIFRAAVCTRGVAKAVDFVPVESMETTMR

| SMILES | IC50 ([1]; Table 8) [nM] | difference in potency between (1R,2S) compound and its (1S,2S) isomer [2] | IC50 [3] [nM] | IC50 ([1]; Table 9) [nM] |
| --- | --- | --- | --- | --- |
| C=CC1CC1(NC(=O)C1CC(Oc2cc(-c3ccccc3)nc3cc(OC)ccc23)CN1C(=O)C(NC(=O)NC(C)(C)C)C(C)(C)C)C(=O)O (stereo not shown) [compound 801] | 6 | over 1500 fold | 6 | – |
| C=CC1CC1(NC(=O)C1CC(Oc2cc(-c3ccccc3)nc3cc(OC)ccc23)CN1C(=O)C(NC(=O)OC(C)(C)C)C(C)(C)C)C(=O)O (stereo not shown) [compound 901] | – | – | 25 | 25 |
| C=CC1CC1(NC(=O)C1CC(Oc2cc(-c3ccccc3)nc3cc(OC)ccc23)CN1C(=O)C(NC(=O)c1cccc(O)c1C)C(C)(C)C)C(=O)O (stereo not shown) [compound 911] | – | – | – | 39 |
| C=CC1CC1(NC(=O)C1CC(Oc2cc(-c3ccccc3)nc3cc(OC)ccc23)CN1C(=O)C(NS(=O)(=O)c1cccs1)C(C)(C)C)C(=O)O (stereo not shown) [compound 912] | – | – | – | 34 |
| C=CC1CC1(NC(=O)C1CC(Oc2cc(-c3ccccc3)nc3cc(OC)ccc23)CN1C(=O)C(NC(=O)Nc1nccs1)C(C)(C)C)C(=O)O (stereo not shown) [compound 913] | – | – | – | 30 |
| C=CC1CC1(NC(=O)C1CC(Oc2cc(-c3ccccc3)nc3cc(OC)ccc23)CN1C(=O)C(NS(=O)(=O)c1sc(NC(C)=O)nc1C)C(C)(C)C)C(=O)O (stereo not shown) [compound 914] | – | – | – | 31 |
| C=CC1CC1(NC(=O)C1CC(Oc2cc(-c3ccccc3)nc3cc(OC)ccc23)CN1C(=O)C(NC(=O)c1ccc[nH]1)C(C)(C)C)C(=O)O (stereo not shown) [compound 916] | – | – | – | 300 |
